{"source": "patent US11549123B2", "about": "“Plant EPSP synthases and methods of use” (PIONEER HI-BRED INTERNATIONAL, INC., priority 2015, dated 2023)", "key": {"[1]": {"biological_target": "T1, Zea mays EPSPS variant G-W at positions 103-107 (EPSPS-TGPW; T103G P107W) (Zea mays, UniProt O24566, P106W/T102G)", "T1 sequence (O24566 with tags, fused parts or gaps T102G/P106W)": "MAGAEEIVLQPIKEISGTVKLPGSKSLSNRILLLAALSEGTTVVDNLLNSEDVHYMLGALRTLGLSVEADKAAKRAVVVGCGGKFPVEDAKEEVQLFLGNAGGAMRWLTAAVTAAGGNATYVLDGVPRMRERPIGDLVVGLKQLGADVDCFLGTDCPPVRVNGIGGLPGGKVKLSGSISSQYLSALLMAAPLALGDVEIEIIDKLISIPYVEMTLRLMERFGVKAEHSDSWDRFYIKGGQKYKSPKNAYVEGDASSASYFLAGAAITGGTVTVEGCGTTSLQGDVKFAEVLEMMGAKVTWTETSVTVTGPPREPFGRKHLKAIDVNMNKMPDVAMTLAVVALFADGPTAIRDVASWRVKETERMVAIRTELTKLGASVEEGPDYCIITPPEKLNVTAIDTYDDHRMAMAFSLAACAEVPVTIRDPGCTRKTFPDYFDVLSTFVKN", "test": "EPSPS substrate saturation kinetics, maize variant 103G 107W (EPSPS-TGPW)", "format": "biochemical", "description": "(§1) EPSPS activity was determined by quantifying the phosphate generated from the EPSPS reaction. Release of inorganic phosphate was coupled to reaction with 2-amino-6-mercapto-7-methylpurine ribonucleoside, catalyzed by purine-nucleoside phosphorylase (M R Webb, Proc. Natl. Acad. Sci. 89:4884-4887, 1992). The absorbance change that occurs was monitored at 360 nm, where the extinction is 11,200 M^−1 cm^−1, with a Spectramax plate reader (Molecular Devices). To determine kinetic parameters, the varied substrate was present at seven concentrations (the eighth being the blank, containing no substrate) ranging from 4 to 400 uM and the unvaried substrate present at saturation. Six microliters of 50-fold concentrated stock solutions of the varied substrate were placed in the wells of the 96-well assay plate and reactions were started with the addition of a mixture containing 25 mM Hepes, pH 7, 100 mM KCl, 0.3 mM 2-amino-6-mercapto-7-methylpurine ribonucleosde, 1 uM (1 unit/ml) purine-nucleoside phosphorylase (Sigma N8264) and 200 uM of the non-varied substrate. Reactions were monitored with a Spectramax plate reader. The Michaelis-Menten kinetics protocol of the Spectramax software was customized for the substrate concentrations used. The software returns values of KM and Vmax using the Lineweaver-Burke transformation of the Michaelis-Menten equation. To determine kcat, Vmax (uM/min) was divided by the enzyme concentration (uM). […] KI was then calculated from the following form of the Michaelis-Menten equation for competitive inhibition: KI=KM[I]/(KM app−KM) KM approximates the dissociation constant of the enzyme-substrate complex while kcat is the rate of conversion of substrate to product when the substrate concentration is saturating. kcat/KM is a widely accepted parameter for catalytic efficiency when substrate concentration is low (˜KM). […] The parameter kcat/KM×KI is used to quantify both catalytic efficiency and insensitivity and thus the overall fitness of the enzyme.\n(§2) NNK-enabled saturation mutagenesis was performed at positions 103 and 107 in the maize EPSPS sequence, and transformed BL21 DE3 cells were screened as described above."}, "[2]": {"system": "Zea mays EPSPS variant G-W at positions 103-107 (EPSPS-TGPW; T103G P107W)", "test": "EPSPS substrate saturation kinetics, maize variant 103G 107W (EPSPS-TGPW)", "format": "biochemical", "description": "as §1, §2"}, "[3]": {"biological_target": "T2, Zea mays EPSPS variant S-N at positions 103-107 (Zea mays, UniProt O24566, P106N/T102S)", "T2 sequence (O24566 with tags, fused parts or gaps T102S/P106N)": "T1 sequence (O24566 with tags, fused parts or gaps T102G/P106W) with G103S, W107N", "test": "EPSPS substrate saturation kinetics, maize variant 103S 107N", "format": "biochemical", "description": "as §1, with “enzyme. […]” for “enzyme.”"}, "[4]": {"biological_target": "T3, Zea mays EPSPS variant V-G at positions 103-107 (Zea mays, UniProt O24566, P106G/T102V)", "T3 sequence (O24566 with tags, fused parts or gaps T102V/P106G)": "T1 sequence (O24566 with tags, fused parts or gaps T102G/P106W) with G103V, W107G", "test": "EPSPS substrate saturation kinetics, maize variant 103V 107G", "format": "biochemical", "description": "as §1, with “enzyme. […]” for “enzyme.”"}, "[5]": {"biological_target": "T4, Zea mays EPSPS variant G102A (Zea mays, UniProt O24566, G101A)", "T4 sequence (O24566 with tags, fused parts or gaps G101A)": "T1 sequence (O24566 with tags, fused parts or gaps T102G/P106W) with G102A, G103T, W107P", "test": "EPSPS substrate saturation kinetics, G102A"}, "[6]": {"conditions": "PEP as substrate, glyphosate as inhibitor"}}, "note": "Where a chain is given by its changes, count along the chain named."}
{"compound": "C=C(OP(=O)(O)O)C(=O)O", "note": "[PEP, phosphoenolpyruvate]", "values": [{"measurement": "kcat", "setting": "[1]; PEP varied", "value": 379}, {"measurement": "catalytic efficiency (kcat/KM) relative to native maize EPSPS", "setting": "[2]; PEP", "value": 5, "unit": "%"}, {"measurement": "higher KM for PEP", "setting": "[2]; relative to native maize EPSPS", "value": 5, "unit": "fold"}, {"measurement": "lower kcat", "setting": "[2]; relative to native maize EPSPS", "value": 4, "unit": "fold"}, {"measurement": "kcat", "setting": "[3]; PEP varied", "value": 161}, {"measurement": "kcat", "setting": "[4]; PEP varied", "value": 324}, {"measurement": "kcat/KM", "setting": "[5]; PEP", "value": 2.2, "unit": "min^−1uM^−1"}, {"measurement": "kcat", "setting": "[5]; PEP varied", "value": 11.6, "unit": "s⁻¹"}]}
{"compound": "O=C(O)CNCP(=O)(O)O", "note": "[glyphosate, N-phosphonomethylglycine]", "values": [{"measurement": "Ki", "setting": "[1]", "value": 403, "unit": "µM"}, {"measurement": "(kcat/KM)*KI", "setting": "[1]; [6]", "value": 1862}, {"measurement": "less sensitive to glyphosate", "setting": "[2]; relative to native maize EPSPS", "value": "about 3,000 fold"}, {"measurement": "Ki", "setting": "[3]", "value": 244, "unit": "µM"}, {"measurement": "(kcat/KM)*KI", "setting": "[3]; [6]", "value": 1033}, {"measurement": "Ki", "setting": "[4]", "value": 480, "unit": "µM"}, {"measurement": "(kcat/KM)*KI", "setting": "[4]; [6]", "value": 1170}, {"measurement": "Ki", "setting": "[5]; KI (glyphosate), competitive with PEP", "value": 2290, "unit": "µM"}, {"measurement": "Ki", "setting": "[5]; Ki, substrate saturation, Zm-G102A", "value": 1340, "unit": "µM"}, {"measurement": "(kcat/KM)*KI", "setting": "[5]; [6]", "value": 5137}, {"measurement": "(kcat/KM)*KI", "setting": "[5]; substrate saturation, Zm-G102A", "value": 2820}]}
